Measurements from patent publication US11191757B2, “Combination of pimavanserin and cytochrome P450 modulators” (ACADIA Pharmaceuticals Inc., priority 2016, dated 2021).
“Also recorded” adds a separate entry of the source. Blank lines part the entries; values can stand above or below the molecule they belong to.

Key:
[1] = Safety and tolerability of single-dose pimavanserin alone and in the presence of ketoconazole in healthy subjects; type: in vivo, human; details: for treatment-related TEAEs considered related to the substance, number (% of the 16 treatment-related TEAEs): 20 healthy subjects, pimavanserin tartrate 40 mg single doses, ketoconazole 400 mg daily for 14 days; for safety and tolerability: healthy adult subjects
Procedure: The subject who was discontinued was not replaced.
Safety data (including adverse events (AEs)), laboratory tests, vital sign measurements, electrocardiograms (ECGs), and physical examination (PE) were reviewed throughout the study for the purpose of safety monitoring. Clinical laboratory assessments were obtained on Day −1, Day 18, and the end of study visit. Vital signs were performed at each study visit, except on Day −1. A 12-lead ECG was performed on Day −1, Day 1, Day 19 and the end of study visit. Other safety measures included physical examination on Days −1, 3, 23, and the end of study visit and any other measures deemed necessary.
All available safety data from subjects receiving at least one dose of study medication were included in the safety analyses. The frequency of AEs was tabulated. Pre-treatment, within study, and end of study, and change from pre-treatment laboratory, vital signs, and ECG parameters were summarized. Shift tables were prepared for laboratory parameters.

[2] = Pharmacokinetics of single-dose pimavanserin alone and in the presence of multiple-dose ketoconazole (strong CYP3A inhibitor) in healthy subjects; details: for metabolite plasma concentrations with ketoconazole co-administration: metabolite in plasma after pimavanserin tartrate 40 mg with ketoconazole 400 mg daily; for metabolite plasma levels after pimavanserin: metabolite in plasma after single dose pimavanserin tartrate 40 mg, 19 subjects; for exposure to metabolite, mean AUC ratio AUC(metabolite)/AUC(parent): after a single dose of pimavanserin
Procedure: (§2) 20 subjects (14 males and 6 females) were enrolled in this study. These subjects were healthy male or female subjects between the ages of 18 and 55 years, and with a body mass index (BMI) between 18 and 30 kg/m^2. Among the 20 subjects, 10 subjects (50%) were black, 9 subjects (45%) were white and 1 subject (5%) was American Indian/Alaska native.
(§3) On Day 1, subjects received a single oral dose of pimavanserin tartrate 40 mg (2×20 mg tablets) under fasting conditions. On Day 15, subjects began taking ketoconazole 400 mg (2×200 mg tablets) orally once daily for 14 days. A single oral dose of pimavanserin tartrate 40 mg was administered under fasting conditions 60 minutes after the fifth ketoconazole dose (on Day 19). Both single doses of pimavanserin tartrate were administered on an empty stomach, following an overnight fast of approximately 10 hours prior to dosing. Subjects continued to fast for 4 hours after administration of pimavanserin tartrate.
(§4) Samples for pimavanserin pharmacokinetic (PK) analysis were collected prior to each pimavanserin dose and at scheduled time points up to 14 days post-dose. More specifically, blood samples for the determination of plasma pimavanserin and four of its metabolites were collected at the following time points in relation to pimavanserin dosing on Day 1 and Day 19: pre-dose (within 30 minutes of dosing), 1, 2, 4, 6, 9, 12, 16, 24, 36, 48, 72, 96, 144, 192, 264, and 336 hours post-dose. The pharmacokinetics of pimavanserin and four metabolites, M1 (N-desmethyl-pimavanserin), M2 (O-desalkyl-pimavanserin), M3 ([ω-1]-hydroxy-pimavanserin), and M4 (ω-hydroxy-pimavanserin), by treatment consisting of pimavanserin alone and pimavanserin with ketoconazole, were assessed using noncompartmental analysis.
(§5) The following parameters were determined for pimavanserin, M1, M2 and M3 (the analytes for which there was a sufficient number of quantifiable post-dose concentrations): the area under the concentration-time curve from 0 to the time of the last measurable concentration (AUC0-t); the area from 0 to infinity (AUC0-inf); the percent of the extrapolated portion of the AUC0-inf (% AUCext); the maximum observed plasma concentration (Cmax); time of maximum plasma concentration (Tmax); apparent first-order terminal elimination rate constant (kel), and apparent first-order terminal elimination half-life (t1/2). Additional PK parameters computed for pimavanserin were oral clearance (CL/F), and apparent volume of distribution (Vz/F). Where feasible, as in the case of pimavanserin, M1, M2 and M3, parent ratios, which were computed as AUC(metabolite)/AUC(parent) ratios based on both AUC0-t and AUC0-inf were also determined.
(§6) A two-sided paired t-test was performed on the natural log-transformed pimavanserin AUC0-t, AUC0-inf, and Cmax at the alpha level of 0.05. The geometric ratio of treatment means (pimavanserin with ketoconazole/pimavanserin alone) and 90% geometric confidence intervals for the ratio of means were calculated for AUC0-t, AUC0-inf, and Cmax.

[3] = biological target: cytochrome P450 (CYP) 3A4 (Homo sapiens, UniProt P08684); assay: In vitro studies of the enzymes forming the primary metabolites of pimavanserin; type: in vitro ADME
Chain of cytochrome P450 (CYP) 3A4 (P08684 whole entry): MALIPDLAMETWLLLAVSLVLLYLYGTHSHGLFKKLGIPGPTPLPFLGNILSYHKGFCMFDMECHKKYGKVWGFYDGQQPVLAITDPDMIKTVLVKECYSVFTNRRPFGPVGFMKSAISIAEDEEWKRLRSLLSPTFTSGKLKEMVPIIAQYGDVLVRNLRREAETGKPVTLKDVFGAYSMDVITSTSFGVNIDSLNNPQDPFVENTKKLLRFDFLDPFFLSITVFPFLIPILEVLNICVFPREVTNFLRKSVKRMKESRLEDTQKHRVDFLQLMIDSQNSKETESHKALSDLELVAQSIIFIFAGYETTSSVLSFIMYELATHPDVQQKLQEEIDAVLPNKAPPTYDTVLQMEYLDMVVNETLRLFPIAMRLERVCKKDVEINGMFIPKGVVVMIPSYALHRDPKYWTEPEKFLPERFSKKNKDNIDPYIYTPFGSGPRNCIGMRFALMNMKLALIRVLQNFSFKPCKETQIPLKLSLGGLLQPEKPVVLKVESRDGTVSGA
Procedure: (§1) A major metabolite formed in vitro by human liver microsomes, M1 (N-desmethyl-pimavanserin), was identified as a significant circulating metabolite in humans in vivo.
An in vitro study was performed to analyze the role of a CYP3A4 inhibitor in pimavanserin metabolism.

CYP3A4 = biological target: T1, CYP3A4 (Homo sapiens, UniProt P08684); assay: Effect of pimavanserin on the pharmacokinetics of midazolam, in vivo probe drug for CYP3A4; details: 34 mg pimavanserin for up to 38 days, humans
T1 construct: from tissue; host or cells: human subjects in vivo (endogenous hepatic/intestinal enzyme)
T1 sequence (P08684 whole entry): as above
Procedure: In this study, the pharmacokinetics of midazolam, a sensitive in vivo probe drug for CYP3A4 and an accepted probe drug for CYP3A4, were evaluated in the presence of pimavanserin in humans. […] No dose adjustment is therefore required for other CYP3A4 substrates when coadministered with pimavanserin.

clinical = details: both, human, in vivo, po, 40 mg
Procedure: as §2, §3, §4, §5, §6

[4] = both, human, in vivo
Procedure: as §2, §3, §4, §5, §6

CYP2J2 = biological target: T2, CYP2J2 (Homo sapiens, UniProt P51589); assay: In vitro studies of the enzymes forming the primary metabolites of pimavanserin; type: in vitro ADME
T2 sequence (P51589 1-502): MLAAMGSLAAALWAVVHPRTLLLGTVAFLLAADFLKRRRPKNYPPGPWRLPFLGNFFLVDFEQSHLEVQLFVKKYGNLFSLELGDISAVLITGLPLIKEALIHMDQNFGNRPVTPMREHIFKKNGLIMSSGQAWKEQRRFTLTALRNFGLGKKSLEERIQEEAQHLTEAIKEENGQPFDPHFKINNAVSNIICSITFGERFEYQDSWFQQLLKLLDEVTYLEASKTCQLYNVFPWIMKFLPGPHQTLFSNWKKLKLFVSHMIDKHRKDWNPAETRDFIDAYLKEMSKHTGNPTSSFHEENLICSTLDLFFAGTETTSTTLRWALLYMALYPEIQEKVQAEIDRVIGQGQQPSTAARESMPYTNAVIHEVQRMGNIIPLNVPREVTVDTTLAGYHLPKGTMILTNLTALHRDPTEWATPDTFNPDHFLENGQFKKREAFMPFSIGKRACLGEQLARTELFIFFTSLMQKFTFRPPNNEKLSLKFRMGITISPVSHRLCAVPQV
Description: as §1

[5] = Elimination half-life of circulating metabolite M1 in humans in vivo; design: species or system human

SMILES: CC(=O)N1CCN(c2ccc(OCC3COC(Cn4ccnc4)(c4ccc(Cl)cc4Cl)O3)cc2)CC1 (stereo not shown) [ketoconazole, reference compound]
treatment-related TEAEs considered related to the substance, number (% of the 16 treatment-related TEAEs) [1]: 12 (75%)

SMILES: CN1CCC(N(Cc2ccc(F)cc2)C(=O)NCc2ccc(OCC(C)(C)O)cc2)CC1 [M3, [ω-1]-hydroxy-pimavanserin]
metabolite plasma concentrations with ketoconazole co-administration [2]: not detectable in any subjects; also recorded: reduced
metabolite plasma levels after pimavanserin [2]: Only 5 of the 19 subjects had a few measurable plasma levels; also recorded: Low levels

SMILES: CC(CO)COc1ccc(CNC(=O)N(Cc2ccc(F)cc2)C2CCN(C)CC2)cc1 (stereo not shown) [M4, ω-hydroxy-pimavanserin]
metabolite plasma levels after pimavanserin [2]: undetectable; also recorded: no detectable concentrations

exposure to metabolite, mean AUC ratio AUC(metabolite)/AUC(parent) [2]: 0.0365
SMILES: CN1CCC(N(Cc2ccc(F)cc2)C(=O)NCc2ccc(O)cc2)CC1 [M2, O-desalkyl-pimavanserin]
metabolite plasma concentrations with ketoconazole co-administration [2]: decreased plasma concentrations; also recorded: reduced

SMILES: CC(C)COc1ccc(CNC(=O)N(Cc2ccc(F)cc2)C2CCN(C)CC2)cc1 [Pimavanserin, N-(1-methylpiperidin-4-yl)-N-(4-fluorophenylmethyl)-N′-(4-(2-methylpropyloxy)phenylmethyl)carbamide]
role of enzyme in formation of the primary metabolites [3]: formed predominantly by the cytochrome P450 (CYP) 3A4 enzymes
effect on midazolam exposure (induction or inhibition of CYP3A4) (CYP3A4): no immediate or delayed effect
AUC(0-inf) (clinical): 1260 ± 464 ng·h/mL
AUC(0-t) (clinical): 1220 ± 433 ng·h/mL
Cmax (clinical): 17.1 ± 3.8 ng/mL
ratio of the geometric means, pimavanserin AUC0-inf [4]: approximately 3
ratio of the geometric means, pimavanserin AUC0-t [4]: approximately 3
role of enzyme in formation of the primary metabolites (CYP2J2): minor role
treatment-related TEAEs considered related to the substance, number (% of the 16 treatment-related TEAEs) [1]: 8 (50%)
changes in mean clinical laboratory, vital signs, 12-lead ECG or physical examination findings ([1]; following pimavanserin alone or pimavanserin with ketoconazole): No trends or clinically relevant changes
safety and tolerability ([1]; pimavanserin administered alone): safe and generally well tolerated
safety and tolerability ([1]; pimavanserin administered with ketoconazole): safe and generally well tolerated
deaths or serious adverse events during the study ([1]; pimavanserin alone and with ketoconazole, 20 subjects): No deaths or serious adverse events

elimination half-life [5]: about 65 hours
exposure to metabolite, mean AUC ratio AUC(metabolite)/AUC(parent) [2]: 1.47
net increase in mean AUC0-t of metabolite with ketoconazole co-administration relative to pimavanserin alone ([2]; metabolite in plasma after pimavanserin tartrate 40 mg, ketoconazole 400 mg daily): 26%
SMILES: CC(C)COc1ccc(CNC(=O)N(Cc2ccc(F)cc2)C2CCNCC2)cc1 [M1, N-desmethyl-pimavanserin]
